Measured values published in ChEMBL document CHEMBL1126004, “Synthesis and resolution of 7-fluorotryptophans” (Bioorg Med Chem Lett, 1991).

test: Compound was evaluated for relative ratio (Kcat/Km) between catalyst constant (Kcat) and Michaelis-Menten constant (Km) in a reaction with tryptophan indole-lyase (tryptophanase) from Escherichia coli

k cat/Km [%] | SMILES
30 | N[C@@H](Cc1c[nH]c2c(F)cc(F)cc12)C(=O)O
100 | N[C@@H](Cc1c[nH]c2ccccc12)C(=O)O
14 | N[C@@H](Cc1c[nH]c2c(F)cccc12)C(=O)O
6 | N[C@@H](Cc1c[nH]c2c(F)ccc(F)c12)C(=O)O
